The subject of one test is HepG2 cells. As to the kind of experiment: Free fatty acid-induced intracellular fat accumulation, Nile Red staining. It counts as cell-based, human. The settings on record: 0.5 mM free fatty acid, 24 hours. How it is done:
By a combined treatment of free fatty acid and a drug, inhibitory effects of individual drugs on intracellular fat accumulation were quantified using a triglyceride staining method. The human hepatoma cell line, HepG2 cells were cultured in a minimum essential medium (MEM) containing 10(v/v) % fetal bovine serum for 48 hours. […] For the negative control group, a MEM containing 1(v/v) % bovine serum albumin was treated with 0.1(v/v) % dimethyl sulfoxide with no addition of free fatty acid. After the culture was complete, the medium was removed and the cells were washed with a phosphate buffer. […] After the staining was complete, the supernatant was discarded and replaced with a phosphate buffer, followed by measurement of fluorescence intensities under conditions of a 488 nm excitation wavelength and a 550 nm emission wavelength. Then, in order to correct a deviation according to the cell count, a phosphate buffer containing 10 μM resazurin (Sigma) dissolved therein was added to the same well. Thereafter, before and after the reaction at 37° C. for 1 hour under light-shielded conditions, fluorescence intensities were measured using a fluorometer under conditions of a 535 nm excitation wavelength and a 580 nm emission wavelength, whereby an increase in fluorescence intensity due to resorufin reduced and formed by the intracellular mitochondrial activity was measured. Using the value of a fluorescence intensity of Nile Red corrected in terms of an increase in fluorescence intensity due to the reduction of resazurin, the experimental results were expressed as a percentage for the fat accumulation increased by a treatment with free fatty acid, as compared to the negative control group.

The test system of test [1] is high fat diet-induced simple steatosis. As to the kind of experiment: Non-alcoholic fatty liver-preventing effects on high fat diet-induced simple steatosis in mice (oral, 28 days). It counts as in vivo, C57BL/6 mice. The following applies: for Triglyceride increase inhibition (%) relative to high fat diet-fed group / Triglyceride increment (%) relative to standard diet-fed group: 28 days, high fat diet. As for the experimental part:
7-week old male C57BL/6 mice were stabilized and then divided into 9 groups (n=9) according to the body weight and blood glucose level. A standard diet-fed group and a high fat diet-fed group were orally administered a vehicle solution (0.5% MC (methylene cellulose)) of each diet once a day at a dose of 10 ml/kg, and the remaining groups were orally given once a day for 28 days a high fat diet in conjunction with tartrate of Compound 1 at doses of 30, 100 and 300 mg/kg, sitagliptin phosphate at doses of 100 and 300 mg/kg, and vildagliptin at doses of 100 mg/kg and 300 mg/kg, respectively, according to the designated groups. 24 hours after the final oral administration, animals were dissected and the excised liver was homogenized in a 5(v/v) % Triton-X solution to which a triglyceride working reagent was then added, followed by measurement of an absorbance at 540 nm to determine the content of triglyceride (Table 2). In addition, a portion of the excised liver was fixed in a 10(v/v) % formalin solution and then a tissue sample was prepared, followed by hematoxylin & eosin(HE) staining and photographing (FIG. 8).

For test [2], the system named is activated hepatic stellate cells. As to the kind of experiment: Expression of activity indicator proteins (TGFβ1, α-SMA) in activated hepatic stellate cells, Western blot. The settings on record: for 1 ng/mL TGFβ1-induced protein expression inhibition rate, TGFβ1 / 1 ng/mL TGFβ1-induced protein expression inhibition rate, α-SMA: 100 μM compound, 7 days, N = 3, corrected by β-actin; for protein expression levels of TGFβ1 and α-SMA, result in words: hTGF-β1-activated rat hepatic stellate cells. It counts as cell-based, rat (Wistar). How it is done:
An inhibitory action of the compounds of the present invention on the activation of hepatic stellate cells was tested according to the following cell culture method. Male rats (Wistar rats), weighing 500 to 700 g, were anesthetized, followed by an abdominal incision, and cannulae were connected to hepatic portal veins, followed by sequential perfusion with a Hank's Balanced Salt Solution (HBSS) containing heparin and an HBSS containing type 1 collagenase. After the perfusion was complete, the liver was excised, ground with surgical scissors, and added to an HBSS containing type 1 collagenase, followed by shaking culture at 37° C. for 15 minutes. The completely ground liquid-state liver tissue was passed through gauze and centrifuged at 500 g for 10 minutes. The resulting mingled cell precipitate was washed with a phosphate buffer, followed by centrifugation at 100 g for 5 minutes, and the supernatant was collected. The supernatant was further centrifuged at 500 g for 10 minutes to obtain a precipitate to which a 9:1 (v/v) mixture of a Ficoll liquid (GE Healthcare) and a Percoll liquid (GE Healthcare) was added, followed by mixing. A phosphate buffer was gently placed on the mixed layer, followed by centrifugation at 1,400 g for 15 minutes. Then, the cell layer formed between the upper layer and the lower layer was recovered and washed once with a Dulbecco's Modified Eagle Medium (DMEM) containing 10(v/v) % fetal bovine serum. The resulting cells were added at a cell density of 3.1×10^5 cells/cm^2, the medium was exchanged with a fresh medium after 24 hours, and cultured for 7 days with exchange of the medium at intervals of 2 to 3 days. Then, the drugs were treated at specified concentrations in a medium containing 1 ng/ml of a human transforming growth factor (TGF) β1 and a medium containing no TGF β1. TGF β1 was dissolved in dimethylsulfoxide (DMSO) to a concentration 1.000-fold higher than the desired treatment concentration of the drug, 1.000-fold diluted in a medium to be a 1-fold (1×) volume, and then treated on cells. After 7 days of the drug treatment, the medium was harvested and washed with a phosphate buffer. A buffer containing a surfactant was added thereto and the cells were lysed. Then, proteins were quantified, electrophoresed on a 4-12% Bis-Tris gel (Invitrogen), and transferred to a nitrocellulose membrane. The transferred proteins were reacted with primary antibodies specific for α-smooth muscle actin (α-SMA) or TGFβ1, and then reacted with horse radish peroxidase-conjugated specific secondary antibodies. The expression level of the target protein was confirmed using a chemiluminescent liquid and corrected in terms of actin (β-actin) expression level (FIG. 9). The decrement of observed protein expression by 100 μM of individual compounds of the present invention was expressed as a percentage drug-induced decrement, based an increment of protein expression in the TGFβ1-treated positive control group relative to the negative control group to which only DMSO was added (Table 3).

Another test concerns TGF-β1. The test is described as follows: TGF-β1 mRNA expression in liver, CCl4-induced acute hepatic damage mouse model. It counts as in vivo, C57BL/6 mice. The settings on record: for TGF-β1 expression inhibition rate (% CCl4 control group) / TGF-β1 expression (normalized by actin): 3 days; for TGF-β1 expression (normalized by actin): CCl4 0.1 ml/kg i.p. As for the experimental part: In order to investigate inhibitory effects of compounds of the present invention on expression of TGF-β1 which is known to play a crucial role in a fibrosis process of hepatocytes in a CCl4-induced acute hepatic damage mouse model, the following experiment was carried out. 7-week old male C57BL/6 mice were stabilized and divided into 9 groups (n=7) according to the body weight, followed by intraperitoneal administration of CCl4 (0.1 ml/kg). The normal control group was administered an olive oil. The control group was orally administered a vehicle solution (0.5% MC) once a day at a dose of 10 ml/kg, at intervals of 24 hours for 3 days. The remaining groups were orally administered once a day tartrate of Compound 1 at doses of 30, 100 and 300 mg/kg, sitagliptin phosphate (prepared according to the method described in WO2004/085378 or WO2005/003135) at doses of 100 and 300 mg/kg, and vildagliptin (Trademax, China) at doses of 100 and 300 mg/kg, respectively, according to the designated groups. 1 hour after the final oral administration, animals were dissected and the excised liver was subjected to evaluation of TGF-β1 mRNA expression. The liver tissue stored in liquid nitrogen was homogenized in a TRIZOL solution and then the total RNAs were extracted. The isolated RNAs were diluted to a concentration of 1 μg/μL in 0.1(v/v) % DEPC (diethyl pyrocarbonate), and then the RNA mixture [2 μg/μL each RNA+2 μL of 0.5 μg/μL oligo d(T)15+up to 15 μL of 0.1% DEPC water] was incubated using a PCR apparatus at 72° C. for 5 minutes, followed by quenching on ice. The mixture [1 μL of PCR nucleotide mix+5 μL of 5×MMLV RT bf.(Promega, M531A)+1 μL of […] M-MLV reverse] was prepared, and then subjected to elongation at 42° C. for 60 minutes, denaturation at 95° C. for 5 minutes and quenching at 8° C. to synthesize cDNAs which were stored at −20° C. until subsequent use. In order to carry out RT-PCR, the mixture [1 μL of 20 pmol each Primer+9.5 μL of Nuclease-free water] was prepared and then 2 μL of each cDNA was placed in sterile PCR tubes to which 12.5 μL of remix Taq™ (RR003A, TaKaRa) was then added, followed by mixing. PCR was carried out under the following conditions (Table 4), using Thermal Cycler (PTC-200, MJ Research). PCT products were electrophoresed and analyzed using an Image Analyzer (Vilber Lourmat). Using β-actin expression, the expression of a target gene TGF-β1 was subjected to normalization (FIG. 11).

For `CN(C)C(=N)N=C(N)N` [metformin], the inhibition at 1000 µM in the test with HepG2 cells (Homo sapiens, HepG2, 1 mM, read-out: inhibitory effects on free fatty acid-induced fat accumulation) worked out at 23.6 ± 5%.
In the case of glucagon-like peptide-1 [GLP-1], the “inhibitory effects on free fatty acid-induced fat accumulation” value with HepG2 cells (100 nM) amounted to 28.0±4.9%.
`N#C[C@@H]1CCCN1C(=O)CNC12CC3CC(CC(O)(C3)C1)C2` [vildagliptin]: in test [1] (100 mg/kg oral once a day), the “Triglyceride increase inhibition (%) relative to high fat diet-fed group” value stood at 24% and the “Triglyceride increment (%) relative to standard diet-fed group” value is given as 38%. Further, in test [1] (300 mg/kg oral once a day), the “Triglyceride increase inhibition (%) relative to high fat diet-fed group” value came to 79% and the “Triglyceride increment (%) relative to standard diet-fed group” value came out at 11%. In test [1] (HE staining, FIG. 8), the “lipid droplets in liver tissue sample (histological evaluation), result in words” value is reported as “reduction of lipid droplets”. Besides, the “maximum decrement of the hepatic triglyceride content relative to the high fat diet-fed group” value in test [1] (maximum over the doses tested) is 79%. Further, in test [2], the “1 ng/mL TGFβ1-induced protein expression inhibition rate, TGFβ1” value is reported as 14 ± 32.8%; the “1 ng/mL TGFβ1-induced protein expression inhibition rate, α-SMA” value is −56 ± 8.4%; the “protein expression levels of TGFβ1 and α-SMA, result in words” value is “lowered”. Further, in the test on TGF-β1 (100 mg/kg oral once a day), the “TGF-β1 expression inhibition rate (% CCl4 control group)” value is listed as 92% and the “TGF-β1 expression (normalized by actin)” value turned out to be 1.02 ± 0.09. For the same compound, in the test with TGF-β1 (300 mg/kg oral once a day), the “TGF-β1 expression inhibition rate (% CCl4 control group)” value turned out to be 115% and the “TGF-β1 expression (normalized by actin)” value is given as 0.96 ± 0.12. Further, the “maximum decrement in TGF-β1 mRNA expression of the liver relative to the CCl4 control group” value in the test on TGF-β1 (maximum over the doses tested) was determined as 115%. Besides, the “expression of TGF-β1 mRNA of the liver, result in words” value in the test on TGF-β1 (vs CCl4 group) is on record as “normalization”.
Turning to `CC#CCn1c(N2CCC[C@@H](N)C2)nc2c1c(=O)n(Cc1nc(C)c3ccccc3n1)c(=O)n2C` [linagliptin], in test [2], the “1 ng/mL TGFβ1-induced protein expression inhibition rate, TGFβ1” value is recorded as 64 ± 17.2%; the “1 ng/mL TGFβ1-induced protein expression inhibition rate, α-SMA” value is 159 ± 17.5%; the “protein expression levels of TGFβ1 and α-SMA, result in words” value is reported as “lowered”.

These data come from patent US20130072459A1, “PHARMACEUTICAL COMPOSITION FOR THE PREVENTION OR THE TREATMENT OF NON-ALCOHOLIC FATTY LIVER DISEASE AND THE METHOD FOR PREVENTION OR TREATMENT OF NON-ALCOHOLIC FATTY LIVER DISEASE USING THE SAME” (priority 2010, published 2013).
